Assays:
[1] = molecular target: Serine/threonine-protein kinase 38 (Homo sapiens) (UniProt Q15208); experiment: Inhibition of NDR1 (unknown origin) assessed as remaining activity at 1 uM by Kinome scan method relative to control
[2] = molecular target: Serine/threonine-protein kinase PLK1 (Homo sapiens) (UniProt P53350); experiment: Inhibition of PLK1 (unknown origin) assessed as remaining activity at 1 uM by Kinome scan method relative to control
[3] = molecular target: Ephrin type-A receptor 2 (Homo sapiens) (UniProt P29317); experiment: Inhibition of EPHA2 (unknown origin) assessed as remaining activity at 1 uM by Kinome scan method relative to control
[4] = molecular target: Rhodopsin kinase GRK1 (Homo sapiens) (UniProt Q15835); experiment: Inhibition of GRK1 (unknown origin) assessed as remaining activity at 1 uM by Kinome scan method relative to control
[5] = molecular target: Cyclin-dependent kinase 2 (Homo sapiens) (UniProt P24941); experiment: Inhibition of CDK2 (unknown origin) assessed as remaining activity at 1 uM by Kinome scan method relative to control
[6] = molecular target: Cyclin-dependent kinase 17 (Homo sapiens) (UniProt Q00537); experiment: Inhibition of PCTK2 (unknown origin) assessed as remaining activity at 1 uM by Kinome scan method relative to control
[7] = molecular target: Aurora kinase B (Homo sapiens) (UniProt Q96GD4); experiment: Inhibition of AURKB (unknown origin) assessed as remaining activity at 1 uM by Kinome scan method relative to control
[8] = molecular target: T1, Inhibitor of nuclear factor kappa-B kinase subunit alpha (Homo sapiens) (UniProt O15111); experiment: Inhibition of IKK-alpha (unknown origin) assessed as remaining activity at 1 uM by Kinome scan method relative to control
T1 sequence (whole entry): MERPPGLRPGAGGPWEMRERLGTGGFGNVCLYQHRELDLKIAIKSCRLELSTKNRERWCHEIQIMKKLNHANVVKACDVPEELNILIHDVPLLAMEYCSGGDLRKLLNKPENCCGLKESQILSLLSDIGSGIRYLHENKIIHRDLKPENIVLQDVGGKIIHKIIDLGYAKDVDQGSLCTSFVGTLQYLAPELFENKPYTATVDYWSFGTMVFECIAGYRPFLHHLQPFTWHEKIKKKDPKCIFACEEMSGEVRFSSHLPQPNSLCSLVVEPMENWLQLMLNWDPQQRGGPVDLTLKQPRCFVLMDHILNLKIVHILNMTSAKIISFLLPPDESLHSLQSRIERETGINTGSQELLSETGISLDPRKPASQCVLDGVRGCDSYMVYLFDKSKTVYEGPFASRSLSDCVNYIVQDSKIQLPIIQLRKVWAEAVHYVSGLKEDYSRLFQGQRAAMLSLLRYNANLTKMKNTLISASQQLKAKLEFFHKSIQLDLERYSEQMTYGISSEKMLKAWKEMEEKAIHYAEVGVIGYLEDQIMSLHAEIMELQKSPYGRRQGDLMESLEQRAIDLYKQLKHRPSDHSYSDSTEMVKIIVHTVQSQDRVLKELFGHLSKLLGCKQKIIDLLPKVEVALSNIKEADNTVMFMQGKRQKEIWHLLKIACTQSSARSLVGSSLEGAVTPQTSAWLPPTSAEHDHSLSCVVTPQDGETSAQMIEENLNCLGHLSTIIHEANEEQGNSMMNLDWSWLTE

[9] = molecular target: Mitogen-activated protein kinase kinase kinase 20 (Homo sapiens) (UniProt Q9NYL2); experiment: Inhibition of ZAK (unknown origin) assessed as remaining activity at 1 uM by Kinome scan method relative to control
[10] = molecular target: Myosin light chain kinase, smooth muscle (Homo sapiens) (UniProt Q15746); experiment: Inhibition of MYLK (unknown origin) assessed as remaining activity at 1 uM by Kinome scan method relative to control
[11] = molecular target: T2, Homeodomain-interacting protein kinase 4 (Homo sapiens) (UniProt Q8NE63); experiment: Inhibition of HIPK4 (unknown origin) assessed as remaining activity at 1 uM by Kinome scan method relative to control
T2 sequence (whole entry): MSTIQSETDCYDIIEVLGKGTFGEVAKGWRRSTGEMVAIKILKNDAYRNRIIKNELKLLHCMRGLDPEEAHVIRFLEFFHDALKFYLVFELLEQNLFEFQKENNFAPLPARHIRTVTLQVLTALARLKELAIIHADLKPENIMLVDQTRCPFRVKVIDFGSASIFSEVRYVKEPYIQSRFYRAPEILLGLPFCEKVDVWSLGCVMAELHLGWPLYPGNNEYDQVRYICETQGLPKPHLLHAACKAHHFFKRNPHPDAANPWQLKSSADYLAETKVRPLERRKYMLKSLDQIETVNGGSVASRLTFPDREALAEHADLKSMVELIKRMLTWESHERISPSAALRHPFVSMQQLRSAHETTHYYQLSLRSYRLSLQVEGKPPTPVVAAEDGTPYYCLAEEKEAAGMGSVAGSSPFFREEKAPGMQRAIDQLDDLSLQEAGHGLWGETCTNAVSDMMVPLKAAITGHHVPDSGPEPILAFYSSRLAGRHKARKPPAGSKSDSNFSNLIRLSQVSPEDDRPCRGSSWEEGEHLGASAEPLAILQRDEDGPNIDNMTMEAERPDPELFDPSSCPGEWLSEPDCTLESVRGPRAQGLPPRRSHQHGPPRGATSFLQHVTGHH

[12] = molecular target: T3, Serine/threonine-protein kinase NLK (Homo sapiens) (UniProt Q9UBE8); experiment: Inhibition of NLK (unknown origin) assessed as remaining activity at 1 uM by Kinome scan method relative to control
T3 sequence (whole entry): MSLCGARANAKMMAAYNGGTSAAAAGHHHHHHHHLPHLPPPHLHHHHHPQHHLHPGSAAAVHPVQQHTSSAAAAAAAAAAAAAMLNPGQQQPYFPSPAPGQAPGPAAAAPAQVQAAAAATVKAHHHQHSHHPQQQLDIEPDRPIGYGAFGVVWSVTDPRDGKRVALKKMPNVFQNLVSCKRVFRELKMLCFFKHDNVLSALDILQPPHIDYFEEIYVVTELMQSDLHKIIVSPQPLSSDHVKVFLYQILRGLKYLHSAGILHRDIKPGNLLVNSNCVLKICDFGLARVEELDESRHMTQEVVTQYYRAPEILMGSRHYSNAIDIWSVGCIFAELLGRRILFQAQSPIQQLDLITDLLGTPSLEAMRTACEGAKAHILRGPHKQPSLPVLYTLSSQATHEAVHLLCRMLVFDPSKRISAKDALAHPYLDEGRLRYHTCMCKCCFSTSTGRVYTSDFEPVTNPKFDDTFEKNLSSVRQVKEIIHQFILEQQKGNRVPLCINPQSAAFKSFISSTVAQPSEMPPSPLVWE

[13] = molecular target: Serine/threonine-protein kinase 36 (Homo sapiens) (UniProt Q9NRP7); experiment: Inhibition of STK36 (unknown origin) assessed as remaining activity at 1 uM by Kinome scan method relative to control
[14] = molecular target: Cyclin-dependent kinase-like 5 (Homo sapiens) (UniProt O76039); experiment: Inhibition of CDKL5 (unknown origin) assessed as remaining activity at 1 uM by Kinome scan method relative to control
Homo sapiens = organism: Homo sapiens; experiment: Inhibition of ACVR1a (unknown origin) assessed as remaining activity at 1 uM by Kinome scan method relative to control

Chain of Mitogen-activated protein kinase kinase kinase 20 (Homo sapiens) (Q9NYL2 2-800 limits assumed): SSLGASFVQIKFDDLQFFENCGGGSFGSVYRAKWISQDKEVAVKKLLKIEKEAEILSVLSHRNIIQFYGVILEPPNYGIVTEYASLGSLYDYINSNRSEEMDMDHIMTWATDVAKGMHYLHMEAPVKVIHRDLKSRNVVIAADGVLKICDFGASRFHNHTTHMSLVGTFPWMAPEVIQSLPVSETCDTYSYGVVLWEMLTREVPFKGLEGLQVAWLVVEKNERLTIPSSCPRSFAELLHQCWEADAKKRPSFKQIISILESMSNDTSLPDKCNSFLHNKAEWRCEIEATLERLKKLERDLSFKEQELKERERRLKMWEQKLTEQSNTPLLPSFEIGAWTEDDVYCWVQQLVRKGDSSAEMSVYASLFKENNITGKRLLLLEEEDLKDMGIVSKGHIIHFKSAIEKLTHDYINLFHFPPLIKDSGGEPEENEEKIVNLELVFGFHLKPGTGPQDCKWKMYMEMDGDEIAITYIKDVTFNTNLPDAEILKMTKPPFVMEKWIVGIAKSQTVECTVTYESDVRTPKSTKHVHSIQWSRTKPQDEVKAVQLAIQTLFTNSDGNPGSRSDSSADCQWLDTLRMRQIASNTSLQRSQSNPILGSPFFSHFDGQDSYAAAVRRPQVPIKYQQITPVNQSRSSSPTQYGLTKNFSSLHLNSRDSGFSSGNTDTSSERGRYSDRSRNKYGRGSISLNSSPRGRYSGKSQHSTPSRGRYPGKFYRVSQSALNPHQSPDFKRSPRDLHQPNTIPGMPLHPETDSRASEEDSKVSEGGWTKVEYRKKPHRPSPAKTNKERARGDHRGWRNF
Chain of Ephrin type-A receptor 2 (Homo sapiens) (P29317 whole entry): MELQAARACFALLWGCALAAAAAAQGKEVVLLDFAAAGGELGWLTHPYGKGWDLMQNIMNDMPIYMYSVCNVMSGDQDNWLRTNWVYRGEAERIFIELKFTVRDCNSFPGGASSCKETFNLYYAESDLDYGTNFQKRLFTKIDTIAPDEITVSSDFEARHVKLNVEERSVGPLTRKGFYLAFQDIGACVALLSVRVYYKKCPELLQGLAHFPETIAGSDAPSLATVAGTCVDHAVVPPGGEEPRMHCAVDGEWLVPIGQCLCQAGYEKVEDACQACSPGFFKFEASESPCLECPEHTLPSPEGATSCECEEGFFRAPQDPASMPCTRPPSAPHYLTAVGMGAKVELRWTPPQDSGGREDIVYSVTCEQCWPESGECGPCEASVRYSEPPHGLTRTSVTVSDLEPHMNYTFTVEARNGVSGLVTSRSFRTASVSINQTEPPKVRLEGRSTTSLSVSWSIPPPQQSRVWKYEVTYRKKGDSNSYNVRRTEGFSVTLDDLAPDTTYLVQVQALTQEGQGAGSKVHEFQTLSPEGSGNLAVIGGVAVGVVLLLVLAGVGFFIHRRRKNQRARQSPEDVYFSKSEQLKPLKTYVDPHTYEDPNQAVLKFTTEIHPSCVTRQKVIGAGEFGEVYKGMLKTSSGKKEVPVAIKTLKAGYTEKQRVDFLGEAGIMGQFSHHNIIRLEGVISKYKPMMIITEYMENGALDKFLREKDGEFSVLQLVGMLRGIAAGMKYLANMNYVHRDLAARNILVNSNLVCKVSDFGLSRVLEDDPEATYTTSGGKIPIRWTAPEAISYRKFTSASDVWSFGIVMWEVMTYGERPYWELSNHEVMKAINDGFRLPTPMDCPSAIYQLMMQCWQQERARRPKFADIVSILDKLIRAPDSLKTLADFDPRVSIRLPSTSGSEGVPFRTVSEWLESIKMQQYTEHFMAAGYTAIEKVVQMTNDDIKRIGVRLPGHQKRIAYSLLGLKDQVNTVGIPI
Chain of Cyclin-dependent kinase-like 5 (Homo sapiens) (O76039 whole entry): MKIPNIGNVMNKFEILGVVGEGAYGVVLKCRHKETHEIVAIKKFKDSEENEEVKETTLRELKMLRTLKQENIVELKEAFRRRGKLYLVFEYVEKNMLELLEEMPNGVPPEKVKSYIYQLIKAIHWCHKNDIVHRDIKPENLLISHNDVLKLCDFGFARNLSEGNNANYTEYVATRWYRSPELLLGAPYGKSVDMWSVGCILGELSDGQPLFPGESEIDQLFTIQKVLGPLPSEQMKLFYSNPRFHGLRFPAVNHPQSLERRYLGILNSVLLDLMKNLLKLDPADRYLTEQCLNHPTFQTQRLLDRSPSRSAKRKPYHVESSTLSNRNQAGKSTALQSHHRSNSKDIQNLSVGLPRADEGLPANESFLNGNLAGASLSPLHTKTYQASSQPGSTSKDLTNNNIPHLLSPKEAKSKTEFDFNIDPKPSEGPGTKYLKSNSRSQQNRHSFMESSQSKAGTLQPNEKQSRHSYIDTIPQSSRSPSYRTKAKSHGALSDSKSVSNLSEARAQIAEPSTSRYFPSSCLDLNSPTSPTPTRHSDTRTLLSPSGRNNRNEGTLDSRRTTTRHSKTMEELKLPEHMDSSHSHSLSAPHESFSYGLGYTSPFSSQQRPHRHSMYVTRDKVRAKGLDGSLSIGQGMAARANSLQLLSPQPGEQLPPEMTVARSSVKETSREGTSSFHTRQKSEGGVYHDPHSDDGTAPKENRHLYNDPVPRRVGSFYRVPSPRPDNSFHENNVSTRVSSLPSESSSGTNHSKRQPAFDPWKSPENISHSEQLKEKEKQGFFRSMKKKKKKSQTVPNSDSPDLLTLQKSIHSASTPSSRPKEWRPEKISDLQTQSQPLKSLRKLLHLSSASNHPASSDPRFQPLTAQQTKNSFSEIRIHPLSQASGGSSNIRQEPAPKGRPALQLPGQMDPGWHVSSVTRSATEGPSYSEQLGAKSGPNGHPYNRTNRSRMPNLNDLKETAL
Chain of Serine/threonine-protein kinase 36 (Homo sapiens) (Q9NRP7 whole entry): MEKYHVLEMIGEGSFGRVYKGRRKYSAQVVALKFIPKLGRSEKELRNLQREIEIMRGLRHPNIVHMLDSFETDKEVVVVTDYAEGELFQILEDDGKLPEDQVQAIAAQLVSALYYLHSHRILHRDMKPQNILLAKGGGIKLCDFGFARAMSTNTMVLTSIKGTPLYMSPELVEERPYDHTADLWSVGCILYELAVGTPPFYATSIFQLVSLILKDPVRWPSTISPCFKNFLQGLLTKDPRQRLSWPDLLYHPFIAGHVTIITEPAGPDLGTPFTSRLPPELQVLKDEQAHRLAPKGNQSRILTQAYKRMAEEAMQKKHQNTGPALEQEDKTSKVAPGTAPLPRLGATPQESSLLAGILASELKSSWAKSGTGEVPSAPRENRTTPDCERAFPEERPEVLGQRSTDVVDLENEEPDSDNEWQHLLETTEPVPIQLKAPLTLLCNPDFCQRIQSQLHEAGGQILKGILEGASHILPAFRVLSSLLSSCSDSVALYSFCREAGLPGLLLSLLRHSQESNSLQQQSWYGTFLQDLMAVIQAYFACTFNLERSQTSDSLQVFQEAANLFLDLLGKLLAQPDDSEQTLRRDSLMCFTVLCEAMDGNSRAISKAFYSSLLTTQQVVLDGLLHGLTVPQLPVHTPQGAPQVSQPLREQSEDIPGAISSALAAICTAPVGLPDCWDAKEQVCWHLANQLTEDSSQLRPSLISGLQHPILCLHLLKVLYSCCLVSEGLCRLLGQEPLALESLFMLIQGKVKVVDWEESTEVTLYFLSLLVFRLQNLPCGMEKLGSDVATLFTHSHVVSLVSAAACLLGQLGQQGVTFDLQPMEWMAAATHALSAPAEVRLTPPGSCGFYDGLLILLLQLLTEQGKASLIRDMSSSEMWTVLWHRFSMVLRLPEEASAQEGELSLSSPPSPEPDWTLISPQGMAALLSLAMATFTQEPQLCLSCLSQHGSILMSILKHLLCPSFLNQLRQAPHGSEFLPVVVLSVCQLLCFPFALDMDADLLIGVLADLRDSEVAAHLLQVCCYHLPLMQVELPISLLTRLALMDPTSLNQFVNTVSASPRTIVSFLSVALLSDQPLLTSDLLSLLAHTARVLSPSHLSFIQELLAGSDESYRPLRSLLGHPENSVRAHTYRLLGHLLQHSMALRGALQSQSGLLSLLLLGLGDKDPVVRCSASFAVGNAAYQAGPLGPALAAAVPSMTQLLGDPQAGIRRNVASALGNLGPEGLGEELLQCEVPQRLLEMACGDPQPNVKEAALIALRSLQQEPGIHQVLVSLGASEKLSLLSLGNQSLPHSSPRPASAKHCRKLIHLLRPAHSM
Chain of Rhodopsin kinase GRK1 (Homo sapiens) (Q15835 whole entry): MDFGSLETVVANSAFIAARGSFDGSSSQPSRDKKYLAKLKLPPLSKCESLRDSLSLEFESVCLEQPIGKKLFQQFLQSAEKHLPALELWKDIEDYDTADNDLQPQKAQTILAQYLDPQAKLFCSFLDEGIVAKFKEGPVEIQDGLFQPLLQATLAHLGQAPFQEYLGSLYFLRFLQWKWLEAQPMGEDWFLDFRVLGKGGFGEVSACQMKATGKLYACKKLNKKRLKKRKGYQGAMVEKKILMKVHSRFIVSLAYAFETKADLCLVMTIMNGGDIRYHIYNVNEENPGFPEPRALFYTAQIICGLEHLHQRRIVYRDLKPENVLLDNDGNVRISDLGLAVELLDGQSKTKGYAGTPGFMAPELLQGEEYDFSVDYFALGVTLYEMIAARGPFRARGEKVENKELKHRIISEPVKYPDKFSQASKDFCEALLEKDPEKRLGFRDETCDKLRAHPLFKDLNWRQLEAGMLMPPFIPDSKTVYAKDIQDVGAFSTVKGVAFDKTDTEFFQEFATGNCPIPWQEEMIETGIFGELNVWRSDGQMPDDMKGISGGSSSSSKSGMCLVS
Chain of Aurora kinase B (Homo sapiens) (Q96GD4 whole entry): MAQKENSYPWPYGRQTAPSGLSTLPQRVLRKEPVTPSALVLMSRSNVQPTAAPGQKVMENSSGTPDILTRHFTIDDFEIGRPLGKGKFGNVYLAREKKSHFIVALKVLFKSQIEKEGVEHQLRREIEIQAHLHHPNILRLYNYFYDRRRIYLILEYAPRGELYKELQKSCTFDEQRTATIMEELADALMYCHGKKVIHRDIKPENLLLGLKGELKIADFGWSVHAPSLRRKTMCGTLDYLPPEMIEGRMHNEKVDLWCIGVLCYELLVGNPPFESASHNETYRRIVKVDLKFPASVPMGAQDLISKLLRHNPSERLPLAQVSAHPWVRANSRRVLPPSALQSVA

## Nc1ccccc1Nc1ccc2c(c1)CCc1ccccc1C2=O
[1]
  Activity: 81%
[2]
  Activity: 93%
[3]
  Activity: 93%
[4]
  Activity: 84%
[5]
  Activity: 97%
[6]
  Activity: 93%
[7]
  Activity: 97%
[8]
  Activity: 98%
[9]
  Activity: 85%
[10]
  Activity: 72%
[11]
  Activity: 97%
[12]
  Activity: 87%
[13]
  Activity: 97%
[14]
  Activity: 96%
Homo sapiens
  Activity: 98%

## O=C1c2ccc(Nc3ccc(F)cc3F)cc2CCc2ccc(OC[C@H](O)CO)cc21 [Skepinone-L]
[1]
  Activity: 87%
[2]
  Activity: 88%
[3]
  Activity: 92%
[4]
  Activity: 76%
[5]
  Activity: 98%
[6]
  Activity: 89%
[7]
  Activity: 96%
[8]
  Activity: 100%
[9]
  Activity: 98%
[10]
  Activity: 97%
[11]
  Activity: 100%
[12]
  Activity: 96%
[13]
  Activity: 98%
[14]
  Activity: 100%
Homo sapiens
  Activity: 98%

From ChEMBL document CHEMBL5696441 (Nat Chem Biol, 2011)
